Data published in patent US11845760B2, “PRMT5 inhibitors” (AMGEN INC., priority 2020, dated 2023).
Like-named read-outs stand apart in the source and are kept apart here.

Experiments:
HCT116 WT cells = experiment: HCT116 WT cell line proliferation (CellTiter-Glo cell viability, 6 days); format: cell-based; settings: HCT116 WT (parent) cells, 6 days of treatment, CellTiter-Glo cell viability, read-out: HCT-116 WT IC50
Procedure: (§1) To assess selective anti-proliferative activity of compounds of the invention in cells that have loss expression of MTAP, an HCT-116 isogenic cell line pair was utilized where one cell line was engineered to genetically knockout both MTAP alleles. Cell viability was then assessed in both the parent HCT-116 cell line and the MTAP null cell line after 6 days of treatment with compounds of the present invention. Selective anti-proliferative activity in the MTAP null cell line indicates MTA-cooperative inhibition of PRMT5 and ability to inhibit growth of cancer cells that have loss of MTAP.
(§2) HCT116 MTAP null and WT cells were seeded in 96-well tissue culture plates in RPMI 1640 media+10% fetal bovine serum. Plates were incubated overnight at 37° C. and 5% CO2. Cells were then treated with an 8- or 9-point serial dilution of compound, using a top concentration of 1, or 10 μM, 1:3 serial dilution steps and, a DMSO-only control. Cells were incubated in the presence of drug for 6 days. Effects on cell viability were measured with the CellTiter-Glo® Luminescent Cell Viability Assay (Promega) per manufacturer's recommendation. Assay plates were read on an EnVision™ Multilabel Reader using the Ultra-Sensitive luminescence module. IC50 values were calculated with GraphPad Prism v 5.01 using symmetrical sigmoidal dose-response least squares fit with Hill slope fixed to −1 and top constrain to 100% or GeneData Screener using a 4-parameter logistic model to fit dose response curves.
(§3) Alternatively, compounds could be assayed with a 384 well plate format:
(§4) Compounds were pre-spotted into 384 well plates with a 22-point serial dilution of compound, using a top concentration of 10 or 50 μM, 1:2 serial dilution steps and, a DMSO-only control. HCT116 MTAP null and WT cells were then seeded as above and after 6 days effects on cell viability were measured with the CellTiter-Glo® Luminescent Cell Viability Assay (Promega). Assay plates were read as above and IC50 values were calculated with GeneData Screener using a 4-parameter logistic model to fit dose response curves. The reported IC50 represents the value where the curve transits 50% of control.

HCT116 MTAP null cells = experiment: HCT116 MTAP null cell line proliferation (CellTiter-Glo cell viability, 6 days); format: cell-based; settings: HCT116 MTAP null cells, 6 days of treatment, CellTiter-Glo cell viability, read-out: HCT-116 MTAP null IC50
Procedure: as §1, §2, §3, §4

| SMILES | IC50 (HCT116 WT cells; Homo sapiens, HCT-116, 144 h) | IC50 (HCT116 MTAP null cells; HCT116-MTAP null, 144 h) | IC50 (HCT116 WT cells) | IC50 (HCT116 MTAP null cells) |
| --- | --- | --- | --- | --- |
| C[C@H]1OCc2c1c(N)nc1ccc(C(=O)N3C[C@@H](c4ccccc4)[C@H](c4ccccc4)C3)cc21 (racemic) [Example 431, ((3R)-4-amino-3-methyl-1,3-dihydrofuro[3,4-c]quinolin-8-yl)((3R,4R)-3,4-diphenyl-1-pyrrolidinyl)methanone and ((3R)-4-amino-3-methyl-1,3-dihydrofuro[3,4-c]quinolin-8-yl)((3S,4S)-3,4-diphenyl-1-pyrrolidinyl)methanone] | 11.4 µM | 0.337 µM |  |  |
| Nc1nc2cc(F)c(C(=O)N3CCC(c4ccc(C(F)(F)F)cn4)C3)cc2c2c1COC2 (racemic) [Example 412, (4-amino-7-fluoro-1,3-dihydrofuro[3,4-c]quinolin-8-yl)((3R)-3-(5-(trifluoromethyl)-2-pyridinyl)-1-pyrrolidinyl)methanone and (4-amino-7-fluoro-1,3-dihydrofuro [3,4-c]quinolin-8-yl)((3S)-3-(5-(trifluoromethyl)-2-pyridinyl)-1-pyrrolidinyl)methanone] | 20.8 µM | 0.725 µM |  |  |
| Cc1ccc([C@@H]2COCCN2C(=O)c2cc3c4c(c(N)nc3cn2)COC4)cn1 (single isomer, unassigned) [Example 608] | > 10 µM | > 1 µM |  |  |
| Cn1ncc2c3cc(C(=O)N4CCOCC4c4ccc(C(F)(F)F)cc4)ccc3nc(N)c21 (racemic) [Example 497, (4-amino-3-methyl-3H-pyrazolo[3,4-c]quinolin-8-yl)((3R)-3-(4-(trifluoromethyl)phenyl)-4-morpholinyl)methanone and (4-amino-3-methyl-3H-pyrazolo[3,4-c]quinolin-8-yl)((3S)-3-(4-(trifluoromethyl)phenyl)-4-morpholinyl)methanone] | 26 µM | 0.477 µM |  |  |
| Nc1nc2cc(F)c(C(=O)N3CCOCC3c3ccc(F)c(C(F)(F)F)c3)cc2c2c1COC2 (racemic) [Example 342, (4-amino-7-fluoro-1,3-dihydrofuro[3,4-c]quinolin-8-yl)((3R)-3-(4-fluoro-3-(trifluoromethyl)phenyl)-4-morpholinyl)methanone and (4-amino-7-fluoro-1,3-dihydrofuro[3,4-c]quinolin-8-yl)((3S)-3-(4-fluoro-3-(trifluoromethyl)phenyl)-4-morpholinyl)methanone] |  |  | 6.17 µM | 0.117 µM |
| COc1ccc([C@H]2COC[C@@H](C)N2C(=O)c2cc3c(cc2F)nc(N)c2c3cnn2C)nn1 [Example 539, (4-amino-7-fluoro-3-methyl-3H-pyrazolo[3,4-c]quinolin-8-yl)((3S,5R)-3-(6-methoxy-3-pyridazinyl)-5-methyl-4-morpholinyl)methanone] | 1.27 µM | 0.027 µM |  |  |
| CCOc1ccc([C@@H]2COC[C@H](C)N2C(=O)c2cc3c4c(c(N)nc3cn2)[C@@H](C)OC4)nn1 (racemic) [Example 326, ((3R)-4-amino-3-methyl-1,3-dihydrofuro[3,4-c][1,7]naphthyridin-8-yl)((3R,5S)-3-(6-ethoxy-3-pyridazinyl)-5-methyl-4-morpholinyl)methanone and ((3R)-4-amino-3-methyl-1,3-dihydrofuro[3,4-c][1,7]naphthyridin-8-yl)((3S,5R)-3-(6-ethoxy-3-pyridazinyl)-5-methyl-4-morpholinyl)methanone] | 2.58 µM | 0.072 µM |  |  |
| Nc1nc2ccc(C(=O)N3CCOCC3c3ccc(C(F)(F)F)nc3)cc2c2c1COC2 (racemic) [Example 513, (4-amino-1,3-dihydrofuro[3,4-c]quinolin-8-yl)-[rac-(3S)-3-[6-(trifluoromethyl)-3-pyridyl]morpholin-4-yl]methanone] | > 10 µM | 0.38 µM |  |  |
| C[C@H]1OCc2c1c(N)nc1cnc(C(=O)N3[C@@H](C)COC[C@H]3c3ccc(C(F)(F)F)nc3)cc21 (racemic) [Example 308, ((3R)-4-amino-3-methyl-1,3-dihydrofuro[3,4-c][1,7]naphthyridin-8-yl)((3R,5S)-3-methyl-5-(6-(trifluoromethyl)-3-pyridinyl)-4-morpholinyl)methanone and ((3R)-4-amino-3-methyl-1,3-dihydrofuro[3,4-c][1,7]naphthyridin-8-yl)((3S,5R)-3-methyl-5-(6-(trifluoromethyl)-3-pyridinyl)-4-morpholinyl)methanone] | 1.72 µM | 0.046 µM |  |  |
| C[C@@H]1COC[C@H](c2ccc(OC(F)F)nn2)N1C(=O)c1cc2c(cc1F)nc(N)c1cnn(C)c12 [Example 561, (4-amino-7-fluoro-1-methyl-1H-pyrazolo[4,3-c]quinolin-8-yl)((3S,5R)-3-(6-(difluoromethoxy)-3-pyridazinyl)-5-methyl-4-morpholinyl)methanone] | 0.12 µM | 0.006 µM |  |  |
| C[C@@H]1COC[C@H](c2ccc(OCCC(F)(F)F)nn2)N1C(=O)c1cc2c3c(c(N)nc2cn1)COC3 [Example 564, (4-amino-1,3-dihydrofuro[3,4-c][1,7]naphthyridin-8-yl)((3R,5S)-3-methyl-5-(6-(3,3,3-trifluoropropoxy)-3-pyridazinyl)-4-morpholinyl)methanone] | 0.708 µM | 0.028 µM |  |  |
| Nc1nc2cc(Cl)c(C(=O)N3CC(c4ccc(C(F)(F)F)cc4)C3)cc2c2c1COC2 [Example 430, (4-amino-7-chloro-1,3-dihydrofuro[3,4-c]quinolin-8-yl)(3-(4-(trifluoromethyl)phenyl)-1-azetidinyl)methanone] | 12.6 µM | 0.445 µM |  |  |
| C[C@H]1OCc2c1c(N)nc1ccc(C(=O)N3C[C@H](c4ccc(Cl)cc4)C[C@H]3C3CC3)cc21 [Example 398, ((3R)-4-amino-3-methyl-1,3-dihydrofuro[3,4-c]quinolin-8-yl)((2S,4S)-4-(4-chlorophenyl)-2-cyclopropyl-1-pyrrolidinyl)methanone] | 13.2 µM | 0.609 µM |  |  |
| Nc1nc2cnc(C(=O)N3CCOC[C@@H]3c3ccc(C(F)(F)F)cc3)cc2c2cncnc12 [Example 504, (5-aminopyrimido[4,5-c][1,7]naphthyridin-9-yl)((3S)-3-(4-(trifluoromethyl)phenyl)-4-morpholinyl)methanone] | 6.38 µM | 0.81 µM |  |  |
| Nc1nc2cnc(C(=O)N3CCOCC3c3ccc(OC(F)(F)F)cc3F)cc2c2c1COC2 (racemic) [Example 386, (4-amino-1,3-dihydrofuro[3,4-c][1,7]naphthyridin-8-yl)((3R)-3-(2-fluoro-4-(trifluoromethoxy)phenyl)-4-morpholinyl)methanone and (4-amino-1,3-dihydrofuro[3,4-c][1,7]naphthyridin-8-yl)((3S)-3-(2-fluoro-4-(trifluoromethoxy)phenyl)-4-morpholinyl)methanone] |  |  | 5.02 µM | 0.344 µM |
| Nc1nc2ccc(C(=O)N3CCOC[C@@H]3c3ccc(CC(F)(F)F)cc3)cc2c2c1COC2 (single isomer, unassigned) [Example 603] | 10.2 µM | 0.42 µM |  |  |
| COC(=O)[C@H]1CN(C(=O)c2cc3c4c(c(N)nc3cc2F)COC4)C[C@@H]1c1ccc(C(F)(F)F)cc1 (single isomer, unassigned) [Example 479] | 18.9 µM | 0.577 µM |  |  |
| Nc1nc2ccc(C(=O)N3CCOCC3c3ccc(F)c(OC(F)(F)F)c3)cc2c2c1COC2 (racemic) [Example 341, (4-amino-1,3-dihydrofuro[3,4-c]quinolin-8-yl)((3R)-3-(4-fluoro-3-(trifluoromethoxy)phenyl)-4-morpholinyl)methanone and (4-amino-1,3-dihydrofuro[3,4-c]quinolin-8-yl)((3S)-3-(4-fluoro-3-(trifluoromethoxy)phenyl)-4-morpholinyl)methanone] | 13.2 µM | 0.871 µM |  |  |
| Cn1ncc2c(N)nc3cnc(C(=O)N4CC[C@H](c5ccc(C(F)(F)F)cc5)C4)cc3c21 [Example 426, (4-amino-1-methyl-1H-pyrazolo[4,3-c][1,7]naphthyridin-8-yl)((3R)-3-(4-(trifluoromethyl)phenyl)-1-pyrrolidinyl)methanone] | 4.76 µM | 0.097 µM |  |  |
| CC1(C)CN(C(=O)c2cc3c4c(c(N)nc3cc2F)COC4)C[C@H]1c1ccc(Br)cc1 (single isomer, unassigned) [Example 478] | 1.95 µM | 0.031 µM |  |  |
| C[C@@H]1COC[C@H](c2ccc(C(F)(F)F)cc2)N1C(=O)c1ccc2nc(N)c3c(cnn3C)c2c1 [Example 533, (4-amino-3-methyl-3H-pyrazolo[3,4-c]quinolin-8-yl)((3R,5S)-3-methyl-5-(4-(trifluoromethyl)phenyl)-4-morpholinyl)methanone] | 2.48 µM | 0.045 µM |  |  |
